Our source for the TGI and GI50 values is PubChem BioAssay (NCI).

Common to all, as to assay: NCI anticancer screen, dose series, 48 h
The subject of experiment [1] is OVCAR-4 ovarian.
Experiment [2] deals with ACHN renal.
Experiment [3] relates to SF-295 CNS.
Experiment [4] relates to PC-3 prostate.
Experiment [5] deals with RPMI-8226 leukemia.
Experiment [6] deals with T-47D breast.
In experiment [7] the test system is HOP-62 NSCLC.
For experiment [8], the system named is MCF7 breast.
Experiment [9] concerns A549 NSCLC.
In experiment [10] the test system is HOP-92 NSCLC.

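Method: 48-hour compound exposure of cells in 96-well plates, five concentrations, linear interpolation of endpoints. GI50 marks 50% less growth. TGI: concentration producing complete growth inhibition.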

Turning to `Cc1ccccc1N=Nc1c(O)[nH]c2ccccc12`, the TGI in [1], in [2], in experiment [3], in experiment [4], in experiment [5] and in experiment [6] was above 100 µM throughout. Further, the TGI in experiment [7], in experiment [8] and in [9] was above 100 µM in each case.
Take `CN1c2ccccc2S(=O)(=O)n2c(COc3ccc(Cl)cc3)nnc21`: the TGI in experiment [1] is above 100 µM; in experiment [10] it was 63.2 µM; in [2], above 100 µM; in experiment [3] it was 92.7 µM; in experiment [4], above 100 µM; in experiment [6], above 100 µM. The TGI in [7] is 47.8 µM; in experiment [8], above 100 µM; in experiment [9], above 100 µM.
For the compound `CNC(C)C(=O)N[C@H](C(=O)N1CCC[C@@H]1CN(CCc1ccccc1)C(=O)C(F)(F)F)[C@H](C)OCC#CC#CCO[C@H](C)[C@H](NC(=O)[C@H](C)NC)C(=O)N1CCC[C@H]1CN(CCc1ccccc1)C(=O)C(F)(F)F` (stereo partly drawn), the GI50 was 0.373 µM in [10]; 1.85 µM in experiment [2]; 1.31 µM in experiment [3]; 1.72 µM in experiment [4]; 1.53 µM in experiment [5]; 1.64 µM in experiment [6]. Also, the GI50 in [7] is 0.729 µM; in [8], 0.239 µM; in [9], 1.72 µM. Also, the TGI in [10] stood at 1.61 µM; in experiment [2] it was 3.44 µM; in experiment [3], 2.84 µM; in experiment [4], 3.23 µM; in experiment [5], 3.52 µM; in experiment [6] it was 3.3 µM. The TGI in experiment [7] turned out to be 2.46 µM; in [8] it was 1.76 µM; in experiment [9], 3.27 µM.
On to `C=C1C(=O)O[C@@H]2C[C@@H]1CC[C@@]1(C)O[C@@H]1CC[C@@]1(C)O[C@@H]1CC[C@@]2(C)O`, for which the GI50 is 12.3 µM in experiment [1]; 21.5 µM in experiment [2]; 19.6 µM in [3]; 34.9 µM in [4]; 14.4 µM in [5]; 2.09 µM in [6]. Besides, the GI50 in experiment [7] was 32.9 µM; in experiment [8] it was 55.2 µM; in [9], 73.8 µM. The TGI in experiment [1] is 34.3 µM; in experiment [2], 66.4 µM; in experiment [3], 60.6 µM; in experiment [4], above 100 µM; in experiment [5] it was 79.7 µM; in experiment [6], 17 µM. Moreover, the TGI in [7], in experiment [8] and in experiment [9] was above 100 µM throughout.
For the compound `Cc1nc(/N=C(\N)NC(=O)Nc2ccccc2Cl)sc1C`, the GI50 in experiment [10] was 1.54 µM; in [2], 0.638 µM; in experiment [3] it was 0.363 µM; in [4] it was 0.659 µM; in experiment [5], 0.406 µM; in [6] it was 0.519 µM. In addition, the GI50 in [7] is 0.505 µM; in experiment [8] it was 0.359 µM; in experiment [9], 0.675 µM. Also, the TGI in [10] was 15.8 µM; in experiment [2], 7.79 µM; in [3] it was 2.7 µM; in experiment [4], above 100 µM; in experiment [5], 7.65 µM; in [6], above 100 µM. Further, the TGI is 2.84 µM in experiment [7], above 100 µM in [8] and above 100 µM in experiment [9].
Take `CCc1c(Cl)nc(Cl)nc1Cl`: the TGI amounted to 3 µM in experiment [10]; 0.219 µM in [2]; 5.84 µM in experiment [3]; 4.06 µM in experiment [4]; 0.252 µM in experiment [5]; 1.7 µM in experiment [6]. In addition, the TGI in [7] was found to be 5.81 µM; in experiment [8] it was 0.258 µM; in experiment [9] it was 13.7 µM.
Take `Cc1cc(-c2nc(-c3ccc(OC(F)(F)F)cc3)no2)nn1Cc1ccnc(N2CCN(C3CC3)CC2)c1`: the GI50 in experiment [1] is below 0.01 µM; in [10], 1.55 µM; in experiment [2] it was 3.1 µM; in experiment [3] it was below 0.01 µM; in experiment [4], 3.38 µM; in experiment [5], 0.582 µM. Moreover, the figures for the GI50 in experiment [6] and in experiment [9] were 1.03 µM and 2.55 µM, respectively. For the same compound, the TGI in experiment [1] was above 100 µM; in experiment [10], 81.4 µM; in experiment [2] it was above 100 µM; in experiment [3] it was above 100 µM; in [4], above 100 µM; in [5], above 58.3 µM. The TGI in experiment [6] is above 100 µM; in experiment [8] it was above 42.7 µM; in experiment [9], above 100 µM.
